A word on the MIC: it is the smallest concentration in the dilution series that meets the test's criterion for growth inhibition. High values mean a need for much substance, low ones inhibition by little substance.

Here are results for 16 compounds from ChEMBL document CHEMBL1147878, “Synthesis and in vitro antimicrobial activity of new 2-[p-substituted-benzyl]-5-[substituted-carbonylamino]benzoxazoles” (2007).

Values after ≈ are worked out from the molar mass of the structure shown.

Format in all cases: functional
Assay [1] concerns Pseudomonas aeruginosa. Description: Antibacterial activity against Pseudomonas aeruginosa ATCC 10145 after 24 hrs by serial dilution method. To be noted: ATCC 10145, 24 h.
Assay [2] relates to Nakaseomyces glabratus. Description: Antifungal activity against Candida glabrata after 48 hrs by serial dilution method.
Assay [3] relates to Bacillus subtilis. Description: Antibacterial activity against Bacillus subtilis ATCC 6633 after 24 hrs by serial dilution method. The following applies: ATCC 6633, 24 h.
Assay [4] has as its system Staphylococcus aureus. Description: Antibacterial activity against Staphylococcus aureus ATCC 25923 after 24 hrs by serial dilution method. The following applies: ATCC 25923, 24 h.
Assay [5] has as its system Pichia kudriavzevii. Description: Antifungal activity against Candida krusei ATCC 6258 after 48 hrs by serial dilution method. To be noted: ATCC 6258, 48 h.
Assay [6] concerns Escherichia coli. Description: Antibacterial activity against Escherichia coli ATCC 23556 after 24 hrs by serial dilution method. The following applies: ATCC 23556, 24 h.
In assay [7] the test system is Candida albicans. Description: Antifungal activity against Candida albicans after 48 hrs by serial dilution method.

As to `O=C(Cc1ccc(Cl)cc1)Nc1ccc2oc(Cc3ccccc3)nc2c1`, the minimum inhibitory concentration (MIC) in assay [1] was 50 µg/mL (≈ 133 µM); in assay [2], 25 µg/mL (≈ 66.3 µM); in assay [3], 100 µg/mL (≈ 265 µM); in assay [4], 100 µg/mL (≈ 265 µM); in assay [5] it was 25 µg/mL (≈ 66.3 µM); in assay [6], 50 µg/mL (≈ 133 µM). The MIC in assay [7] is 25 µg/mL (≈ 66.3 µM).

For the compound `O=C(Nc1ccc2oc(Cc3ccc(Cl)cc3)nc2c1)c1ccccc1`, the MIC in assay [1] came out at 100 µg/mL (≈ 276 µM); in assay [2] it was 25 µg/mL (≈ 68.9 µM); in assay [3], 50 µg/mL (≈ 138 µM); in assay [4], 200 µg/mL (≈ 551 µM); in assay [5], 25 µg/mL (≈ 68.9 µM); in assay [6] it was 100 µg/mL (≈ 276 µM). The compound further showed an MIC in assay [7] of 50 µg/mL (≈ 138 µM).

For the compound `O=C(Nc1ccc2oc(Cc3ccccc3)nc2c1)c1ccc(Cl)c([N+](=O)[O-])c1`, the MIC in assay [1] is 25 µg/mL (≈ 61.3 µM); in assay [2], 12.5 µg/mL (≈ 30.7 µM); in assay [3] it was 25 µg/mL (≈ 61.3 µM); in assay [4], 50 µg/mL (≈ 123 µM); in assay [5], 12.5 µg/mL (≈ 30.7 µM); in assay [6], 50 µg/mL (≈ 123 µM). Besides, it took 12.5 µg/mL (≈ 30.7 µM) to inhibit growth in assay [7] (MIC).

`O=C(Cc1ccc(F)cc1)Nc1ccc2oc(Cc3ccccc3)nc2c1`: the MIC in assay [1] is 25 µg/mL (≈ 69.4 µM); in assay [2] it was 12.5 µg/mL (≈ 34.7 µM); in assay [3] it was 25 µg/mL (≈ 69.4 µM); in assay [4] it was 50 µg/mL (≈ 139 µM); in assay [5] it was 12.5 µg/mL (≈ 34.7 µM); in assay [6], 25 µg/mL (≈ 69.4 µM). In addition, 50 µg/mL (≈ 139 µM) was the least that counted as inhibitory in assay [7] (MIC).

For `O=C(Cc1ccc(Cl)cc1)Nc1ccc2oc(Cc3ccc(Cl)cc3)nc2c1`, the MIC worked out at 25 µg/mL (≈ 60.8 µM) in assay [1]; 12.5 µg/mL (≈ 30.4 µM) in assay [2]; 25 µg/mL (≈ 60.8 µM) in assay [3]; 50 µg/mL (≈ 122 µM) in assay [4]; 6.25 µg/mL (≈ 15.2 µM) in assay [5]; 50 µg/mL (≈ 122 µM) in assay [6]. This compound registered an MIC in assay [7] of 50 µg/mL (≈ 122 µM).

Turning to `O=C(Nc1ccc2oc(Cc3ccc(Cl)cc3)nc2c1)c1ccc(Br)cc1`, the MIC was found to be 50 µg/mL (≈ 113 µM) in assay [1]; 100 µg/mL (≈ 226 µM) in assay [2]; 50 µg/mL (≈ 113 µM) in assay [3]; 50 µg/mL (≈ 113 µM) in assay [4]; 100 µg/mL (≈ 226 µM) in assay [5]; 50 µg/mL (≈ 113 µM) in assay [6]. The MIC in assay [7] came to 50 µg/mL (≈ 113 µM).

Consider `Cc1ccc(C(=O)Nc2ccc3oc(Cc4ccccc4)nc3c2)s1`, for which the MIC in assay [1] amounted to 25 µg/mL (≈ 71.8 µM); in assay [2], 6.25 µg/mL (≈ 17.9 µM); in assay [3] it was 25 µg/mL (≈ 71.8 µM); in assay [4] it was 25 µg/mL (≈ 71.8 µM); in assay [5], 6.25 µg/mL (≈ 17.9 µM); in assay [6], 25 µg/mL (≈ 71.8 µM). The MIC in assay [7] stood at 12.5 µg/mL (≈ 35.9 µM).

Take `O=C(Cc1ccc(Br)cc1)Nc1ccc2oc(Cc3ccccc3)nc2c1`: the MIC is 25 µg/mL (≈ 59.3 µM) in assay [1]; 3.12 µg/mL (≈ 7.41 µM) in assay [2]; 25 µg/mL (≈ 59.3 µM) in assay [3]; 25 µg/mL (≈ 59.3 µM) in assay [4]; 12.5 µg/mL (≈ 29.7 µM) in assay [5]; 25 µg/mL (≈ 59.3 µM) in assay [6]. In addition, the MIC in assay [7] stood at 25 µg/mL (≈ 59.3 µM).

In the case of `O=C(Nc1ccc2oc(Cc3ccc(Cl)cc3)nc2c1)c1ccc(Cl)c([N+](=O)[O-])c1`, the MIC in assay [1] worked out at 50 µg/mL (≈ 113 µM); in assay [2], 25 µg/mL (≈ 56.5 µM); in assay [3] it was 50 µg/mL (≈ 113 µM); in assay [4], 50 µg/mL (≈ 113 µM); in assay [5] it was 25 µg/mL (≈ 56.5 µM); in assay [6] it was 50 µg/mL (≈ 113 µM). This compound displayed a minimum inhibitory concentration (MIC) in assay [7] of 25 µg/mL (≈ 56.5 µM).

As to `O=C(Nc1ccc2oc(Cc3ccccc3)nc2c1)c1ccc(Br)cc1`, the MIC was 25 µg/mL (≈ 61.4 µM) in assay [1]; 25 µg/mL (≈ 61.4 µM) in assay [2]; 50 µg/mL (≈ 123 µM) in assay [3]; 50 µg/mL (≈ 123 µM) in assay [4]; 25 µg/mL (≈ 61.4 µM) in assay [5]; 50 µg/mL (≈ 123 µM) in assay [6]. Besides, inhibition of growth in assay [7] (MIC) required 25 µg/mL (≈ 61.4 µM).

On to `O=C(Nc1ccc2oc(Cc3ccccc3)nc2c1)c1ccc([N+](=O)[O-])cc1`, for which the MIC in assay [1] amounted to 25 µg/mL (≈ 67 µM); in assay [2], 12.5 µg/mL (≈ 33.5 µM); in assay [3], 25 µg/mL (≈ 67 µM); in assay [4], 50 µg/mL (≈ 134 µM); in assay [5] it was 12.5 µg/mL (≈ 33.5 µM); in assay [6], 100 µg/mL (≈ 268 µM). In assay [7], this compound displayed an MIC of 12.5 µg/mL (≈ 33.5 µM).

Regarding `O=C(Nc1ccc2oc(Cc3ccc(Cl)cc3)nc2c1)c1ccc(F)cc1`, the MIC in assay [1] was found to be 50 µg/mL (≈ 131 µM); in assay [2] it was 12.5 µg/mL (≈ 32.8 µM); in assay [3], 25 µg/mL (≈ 65.7 µM); in assay [4], 50 µg/mL (≈ 131 µM); in assay [5], 12.5 µg/mL (≈ 32.8 µM); in assay [6], 25 µg/mL (≈ 65.7 µM). Further, in assay [7], the lowest concentration to inhibit growth (MIC) was 12.5 µg/mL (≈ 32.8 µM).

In the case of `Cc1ccc(C)c(C(=O)Nc2ccc3oc(Cc4ccccc4)nc3c2)c1`, the MIC in assay [1] worked out at 50 µg/mL (≈ 140 µM); in assay [2] it was 25 µg/mL (≈ 70.1 µM); in assay [3], 25 µg/mL (≈ 70.1 µM); in assay [4] it was 50 µg/mL (≈ 140 µM); in assay [5], 25 µg/mL (≈ 70.1 µM); in assay [6] it was 50 µg/mL (≈ 140 µM). This compound also had an MIC in assay [7] of 25 µg/mL (≈ 70.1 µM).

As to `CCc1ccc(C(=O)Nc2ccc3oc(Cc4ccccc4)nc3c2)cc1`, the MIC in assay [1] is 50 µg/mL (≈ 140 µM); in assay [2], 12.5 µg/mL (≈ 35.1 µM); in assay [3], 50 µg/mL (≈ 140 µM); in assay [4], 50 µg/mL (≈ 140 µM); in assay [5], 25 µg/mL (≈ 70.1 µM); in assay [6], 50 µg/mL (≈ 140 µM). It took 25 µg/mL (≈ 70.1 µM) to inhibit growth in assay [7] (MIC).

With `O=C(Cc1ccc([N+](=O)[O-])cc1)Nc1ccc2oc(Cc3ccccc3)nc2c1`, the MIC in assay [1] stood at 25 µg/mL (≈ 64.5 µM); in assay [2] it was 25 µg/mL (≈ 64.5 µM); in assay [3], 50 µg/mL (≈ 129 µM); in assay [4], 50 µg/mL (≈ 129 µM); in assay [5] it was 25 µg/mL (≈ 64.5 µM); in assay [6], 50 µg/mL (≈ 129 µM). In addition, the MIC in assay [7] stood at 25 µg/mL (≈ 64.5 µM).

For `O=C(CSc1ccccc1)Nc1ccc2oc(Cc3ccc(Cl)cc3)nc2c1`, the MIC amounted to 100 µg/mL (≈ 245 µM) in assay [1]; 50 µg/mL (≈ 122 µM) in assay [2]; 100 µg/mL (≈ 245 µM) in assay [3]; 100 µg/mL (≈ 245 µM) in assay [4]; 25 µg/mL (≈ 61.1 µM) in assay [5]; 100 µg/mL (≈ 245 µM) in assay [6]. In addition, the lowest concentration to inhibit growth in assay [7] (MIC) was 50 µg/mL (≈ 122 µM).
